# Where no end group is shown, it is not given here.
# Tests used:
# Assay type in all cases: cell-based
# [1] = system: human-derived chondrocytes (C28/I2, human chondrocyte cell line); experiment: Cytotoxicity, CCK-8 assay; conditions: C28/I2 cells, different concentrations, after 3 days, 450 nm
# Experimental: The cytotoxicity of Peptide-1 or Peptide-2 upon addition to human-derived chondrocytes (C28/I2, human chondrocyte cell line) was analyzed using a CCK-8 assay.
# Specifically, human-derived chondrocytes were seeded in a 96-well plate at a density of 3 × 10^3 cells/well and cultured in DMEM medium (cat. 11995-065, Gibco) for 24 hours. […] Meanwhile, as a negative control group, an experimental group to which the peptide was not added was used.
# [2] = system: human adipose-derived mesenchymal stem cells (AD-MSC); experiment: Cytotoxicity, CCK-8 assay; conditions: different concentrations, after 7 days, 450 nm
# [3] = system: human adipose-derived mesenchymal stem cells (AD-MSC); experiment: Cell morphology changes, SRB staining; conditions: different concentrations, after 7 days
# Experimental: Additionally, for SRB staining, after suctioning the medium from the plate, 60 µL of 3.7 % formalin was added to the 96-well plate to be stained and fixed for 1 minute. After suctioning 3.7 % formalin, 70 µL of SRB staining solution (sulforhodamine B sodium salt (sigma, S9012): 0.2 g in 100 mL DDW) was added and stained. The plate was covered with aluminum foil, blocked from light, and incubated overnight at room temperature. After washing with 100 µL of 1 % acetic acid using a multi-pipette, it was dried and observed under a microscope.
Substance,toxicity (CCK-8 activity) [1],toxicity (CCK-8 activity) [2],change in cell morphology in SRB staining [3]
"KVSYAAEKNRKNY [Peptide-1, KVSYAAEKNRKNY]",did not exhibit toxicity,did not exhibit toxicity,did not show any change in cell morphology
"SSFYF [Peptide-2, SSFYF]",did not exhibit toxicity,did not exhibit toxicity,did not show any change in cell morphology

# Reference: patent publication EP4631968A1, “PEPTIDE FOR CARTILAGE REGENERATION, AND USES THEREOF” (Caregen Co., Ltd., priority 2022, dated 2024)
